Experimental data reported in patent US20180207228A1, “PEPTIDE COMBINATIONS AND USES THEREOF FOR TREATING GRASS ALLERGY” (ALK-Abelló A/S, priority 2015, published 2018).

What was measured:
Assay type in all cases: cell-based, human
[1] = test system: release of IFN-γ upon T cell activation; experiment: Fluorospot assay, IFN-γ release (DK1-TCL01, US1-TCL01); settings: head prints TCL-02 DK1; 17 TCL-01 DK1 lines
Procedure: (§1) Grass allergic donors were recruited (cohort DK1 including 30 grass allergic individuals, DK2 including 24 grass allergic individuals and US1 including 15 grass allergic individuals). PBMCs were isolated from freshly drawn heparinized blood by gradient centrifugation on lymphoprep (Nycomed, Norway), washed twice and re-suspended in RPMI 1640 medium with HEPES and ultraglutamine (Cambrex, Belgium) supplemented with 5% v/v human AB-serum (Cambrex, Belgium), 100 units/ml penicillin, and 0.1 mg/ml streptomycin (Sigma, St Louis, USA) (referred to as 5% AB-medium). Aliquots of the isolated PBMCs were frozen and were thawed later to stimulate the T cell lines. Additionally either fresh or thawed PBMCs were used as antigen presenting cells (APCs) in the proliferation assay as described later. In some cases the PBMCs were freezed at this stage and thawed later on to continue the experiment as described in the following. The isolated PBMCs (fresh or thawed) were CD8 depleted by MACS magnetic depletion according to the manufacturer's instructions (Miltenyi Biotec, Bergisch Gladbach, Germany). On day 0 the CD8-depleted PBMCs (2×10^6/ml) were stimulated in 1 ml bulk cultures in AB medium in 24 well plates (Nunc, Denmark) with the mixture of natural allergens: nPhl p 1 (0.5 μg/ml), mix of nPhl p 2/nPhl p 3 (1.0 μg/ml), nPhl p 4 (0.5 μg/ml), nPhl p 5 (0.5 μg/ml) and nCyn d 1 (0.5 μg/ml). Amount of 65 U, 30 U, and 30 U recombinant IL-2 (Chiron, USA) were added per well at days 5, 6 and 7, respectively. On day 14 cells were harvested to obtain T cell line generation 01 (referred to as TCL01).
(§2) On day 14 the T cells of TCL01 were isolated, washed and counted. The isolated T cells of TCL01 generation were used to perform either ELISpot or Fluorospot assay. TCL01 were further re-stimulated as described in the next paragraph for use in T cell proliferation. The aliquot for use in T cell proliferation was re-stimulated on day 14 to carry out proliferation experiment at day 24.
(§3) In the Fluorospot assays, release of IL-5 and IFN-γ upon T cell activation (of donor derived lines DK1-TCL01, and US1-TCL01) with a peptide or a peptide-mix described herein was measured by Fluorospot assay kit (Mabtech AB) and procedures were followed as per manufacturer's instructions. Briefly anti-human IL-5 and anti-human IFN-γ coated 96 well plates were obtained and blocked with 10% AB serum in RPMI. The plates were washed thoroughly and the isolated T cells were plated and incubated with either single peptides (2 μg/ml) or peptide mixes (2 μg/ml), or allergens nPhl p1, nPhl p 2, nPhl p 3, nPhl p 4, nPhl p 5, Cyn d 1 at 2 μg/ml for 20 hrs/37° C./5% CO2. After the incubation time the cells were removed by emptying the plate. Detection antibodies 7-B6-1-FS-FITC (1:200) and 5A10-biotin (2 μg/ml) were diluted in PBS-0.1% BSA and were added to the plate and incubated for 2 hours/room temperature (RT). There-after the plates were washed and anti-FITC-green (1:200) and SA-Red (1:200) diluted in PBS±0.1% BSA were added and incubated for 1 hour/RT/dark. After the incubation period the plates were washed, emptied and fluorescence enhancer solution was added for 15 minutes/RT. Plates were emptied, fluorescence enhancer solution was firmly tapped out against a clean paper, soft plastic under drain was removed and the plates were left in the dark to dry. The counts were inspected in a fluorospot reader. Hit criteria for peptide were 20 SFCs/10^6 PBMCs, p≤0.05 and poisson 0.05 stimulated cells compared to background, and a stimulation index (SI)≥2.
(§4) The peptides were identified as hits if they fulfilled the criteria as mentioned below where stimulation index (SI) value of 2 or above, Poisson value=<0.05 and P value=<0.05, SFC>=20 (IL-5/IFN-g)/10^6 cells and CPM>=1000 (proliferation) SI can be defined as [[…]/medium control] in a Fluorospot assay and [counts per minute (cpm)/medium control] in a proliferation assay.

[2] = test system: release of IL-5 upon T cell activation; experiment: Fluorospot assay, IL-5 release (DK1-TCL01, US1-TCL01); settings: head prints TCL-02 DK1; text: 25 TCL-01 DK1 lines
Procedure: as §1, §2, §3, §4

[3] = test system: allergen specific T cells; experiment: T cell proliferation assay (72 h) on donor derived T cell lines (TCL02/TCL03); settings: for Proliferation % donor coverage (TCL-02 DK1): T cell lines TCL-02 DK1, 30 donors, hit criteria SI>=2, CPM>=1000; for Proliferation strength (TCL-02 DK1): T cell lines TCL-02 DK1, strength of response (average relative magnitude)
Text: Isolated PBMCs (peripheral blood mononuclear cells) obtained from the donors described in Example 2 were CD8 depleted and the T cell lines were established by stimulating the cultures with nPhl p1, mix of nPhl p 2 and […] 5 and […] established for each of the donors tested by stimulating with the mixture of above listed allergens. Grass allergic donors were recruited (cohort DK1 including 30 grass allergic individuals, DK2 including 24 grass allergic individuals and US1 including 15 grass allergic individuals). PBMCs were isolated from freshly drawn heparinized blood by gradient centrifugation on lymphoprep (Nycomed, Norway), washed twice and re-suspended in RPMI 1640 medium with HEPES and ultraglutamine (Cambrex, Belgium) supplemented with 5% v/v human AB-serum (Cambrex, Belgium), 100 units/ml penicillin, and 0.1 mg/ml streptomycin (Sigma, St Louis, USA) (referred to as 5% AB-medium). Aliquots of the isolated PBMCs were frozen and were thawed later to stimulate the T cell lines. Additionally either fresh or thawed PBMCs were used as antigen presenting cells (APCs) in the proliferation assay as described later. In some cases the PBMCs were freezed at this stage and thawed later on to continue the experiment as described in the following. The isolated PBMCs (fresh or thawed) were CD8 depleted by MACS magnetic depletion according to the manufacturer's instructions (Miltenyi Biotec, Bergisch Gladbach, Germany). On day 0 the CD8-depleted PBMCs (2×10^6/ml) were stimulated in 1 ml bulk cultures in AB medium in 24 well plates (Nunc, Denmark) with the mixture of natural allergens: nPhl p 1 (0.5 μg/ml), mix of […]). […] On day 14 cells were harvested to obtain T cell line generation 01 (referred to as TCL01). Restimulation of T cell lines were performed in AB-medium with the thawed autologous PBMCs (10^6/well, irradiated 2500 Rad), the above mixture of natural allergens (concentration as mentioned above), and PHA-P (0.5 μg/ml, Difco, Detroit, Mich., USA). rIL-2 was added at day 17, 18 and 19. On day 24 cells were harvested to obtain T cell line generation 02 (referred as TCL02). T cells were isolated, washed, counted and used for T cell proliferation assay as described later. Remaining cells were frozen for later thawing and re-stimulations. The T cell line generation 2 (TCL02) were thawed and were re-stimulated with allogeneic Epstein Bar Virus transformed lymphoblastoid cell lines (EBV) B cells (JY cells, 10^5/well, irradiated 3500 Rad), allogeneic PBMCs (10^6/well, irradiated 2500 Rad), and 0.5 μg/ml PHA-P and subsequent addition of rIL-2 at days 3-5 to generate T cell line generation 03 (referred to as TCL03). […] To summarize ELISpot experiments were carried out at day 14 (with TCL01) and proliferation assay on either day 24 (with TCL02) or at day 34 (with TCL03). […] To ensure that all T cell epitopes regions from the major and intermediate grass allergens of the grass were identified T cell screening was carried out with either overlapping peptides or selected peptides. […] These were overlapping 20-mer peptides spanning the entire full length amino acid sequence of […] and selected high binder peptides from Phl p 4 were tested. Additionally 21, 15 mer peptides were tested which were derived from various group 1 and 5 allergens. Also, 67 peptides from homologous grass allergens were tested. Finally some reference peptides and mixes thereof were also tested. The 15-mer peptides were selected on the basis of predicted and measured promiscuous HLA binding and of sequence homology between known proteins sequences from the relevant pooideae grasses and the Bermuda grass. […] To get comprehensive data from all the donors the peptides were tested in both Fluorospot/Elispot (day 14, TCL01) and proliferation (day 24, TCL02).

For CC[C@H](C)[C@H](NC(=O)[C@@H](NC(=O)[C@H](CC(=O)O)NC(=O)[C@H](CCC(=O)O)NC(=O)[C@H](C)NC(=O)[C@H](CCC(=O)O)NC(=O)[C@@H](N)[C@@H](C)O)C(C)C)C(=O)N1CCC[C@H]1C(=O)N[C@@H](CCC(=O)O)C(=O)NCC(=O)N[C@@H](Cc1c[nH]c2ccccc12)C(=O)N[C@@H](CCCCN)C(=O)N[C@@H](C)C(=O)N[C@@H](CC(=O)O)C(=O)N[C@H](C(=O)N[C@@H](CO)C(=O)N[C@@H](Cc1ccc(O)cc1)C(=O)N[C@@H](CCC(=O)O)C(=O)N[C@@H](CO)C(=O)N[C@@H](CCCCN)C(=O)O)[C@@H](C)O [compound 13], the “IFN-gamma % donor coverage (TCL-02 DK1)” value [1] was 8.00%, the “IL-5-Fluorospotr % donor coverage (TCL-02 DK1)” value [2] was 16.00% and the “Proliferation % donor coverage (TCL-02 DK1)” value (from here on “Proliferation % donor coverage”) [3] was 43.33%. The “Proliferation strength (TCL-02 DK1)” value [3] was 8.10.
For CC[C@H](C)[C@H](NC(=O)[C@H](CCCCN)NC(=O)[C@@H](NC(=O)[C@H](CC(C)C)NC(=O)[C@@H](NC(=O)[C@@H]1CCCN1C(=O)[C@H](CCC(=O)O)NC(=O)CNC(=O)[C@H](CO)NC(=O)[C@H](CO)NC(=O)[C@H](CCC(=O)O)NC(=O)[C@@H](NC(=O)[C@@H]1CCCN1)C(C)C)C(C)C)C(C)C)C(=O)N[C@H](C(=O)N[C@@H](CC(=O)O)C(=O)N[C@@H](CCCCN)C(=O)N[C@@H](CC(N)=O)C(=O)N[C@@H](Cc1ccc(O)cc1)C(=O)N[C@@H](CCC(=O)O)C(=O)N[C@@H](Cc1c[nH]cn1)C(=O)O)[C@@H](C)O [compound 97], the “IFN-gamma % donor coverage (TCL-02 DK1)” value [1] was 8.00%, the “IL-5-Fluorospotr % donor coverage (TCL-02 DK1)” value [2] was 4.00% and the “Proliferation % donor coverage” value [3] was 10.00%. The “Proliferation strength (TCL-02 DK1)” value [3] was 0.70.
In the case of CC(C)C[C@H](NC(=O)[C@H](CCC(=O)O)NC(=O)CN)C(=O)N[C@@H](CCC(=O)O)C(=O)N[C@@H](CC(C)C)C(=O)N[C@@H](CCC(N)=O)C(=O)N[C@@H](Cc1ccccc1)C(=O)N[C@@H](CCCNC(=N)N)C(=O)N[C@@H](CCCNC(=N)N)C(=O)N[C@H](C(=O)N[C@@H](CCCCN)C(=O)N[C@@H](CO)C(=O)N[C@@H](CCCCN)C(=O)N[C@@H](Cc1ccc(O)cc1)C(=O)N1CCC[C@H]1C(=O)O)C(C)C [compound 118], the “IFN-gamma % donor coverage (TCL-02 DK1)” value [1] is reported as 4.00%, the “IL-5-Fluorospotr % donor coverage (TCL-02 DK1)” value [2] is reported as 25.00% and the “Proliferation % donor coverage” value [3] is reported as 65.52%. For the same molecule, the “Proliferation strength (TCL-02 DK1)” value [3] was 11.50.
In the case of CC[C@H](C)[C@H](NC(=O)[C@H](CCCCN)NC(=O)[C@H](CCC(=O)O)NC(=O)[C@@H](NC(=O)[C@@H](N)CC(C)C)[C@@H](C)CC)C(=O)N[C@@H](CC(N)=O)C(=O)N[C@@H](C)C(=O)NCC(=O)N[C@@H](Cc1ccccc1)C(=O)N[C@@H](CCCCN)C(=O)N[C@@H](C)C(=O)N[C@@H](C)C(=O)N[C@H](C(=O)N[C@@H](C)C(=O)N[C@@H](C)C(=O)O)C(C)C [compound 123], the “IFN-gamma % donor coverage (TCL-02 DK1)” value [1] is reported as 0.00%, the “IL-5-Fluorospotr % donor coverage (TCL-02 DK1)” value [2] is reported as 12.50% and the “Proliferation % donor coverage” value [3] is reported as 53.33%. The “Proliferation strength (TCL-02 DK1)” value [3] was 7.90.
For CC[C@H](C)[C@H](NC(=O)[C@H](CC(N)=O)NC(=O)[C@H](CC(C)C)NC(=O)[C@@H](NC(=O)[C@H](CC(C)C)NC(=O)[C@@H](NC(=O)[C@H](CCCCN)NC(=O)[C@H](C)NC(=O)[C@H](CC(=O)O)NC(=O)[C@@H](N)CO)[C@@H](C)O)C(C)C)C(=O)N[C@@H](CCCCN)C(=O)N[C@@H](Cc1ccc(O)cc1)C(=O)N[C@H](C(=O)N[C@@H](CCCNC(=N)N)C(=O)N1CCC[C@H]1C(=O)O)[C@@H](C)O [compound 125], the “IFN-gamma % donor coverage (TCL-02 DK1)” value [1] was 4.00%, the “IL-5-Fluorospotr % donor coverage (TCL-02 DK1)” value [2] was 12.50% and the “Proliferation % donor coverage” value [3] was 31.03%. The “Proliferation strength (TCL-02 DK1)” value [3] was 6.30.
In the case of CSCC[C@H](N)C(=O)N[C@@H](CCCNC(=N)N)C(=O)N[C@@H](CC(N)=O)C(=O)N[C@H](C(=O)N[C@@H](Cc1ccccc1)C(=O)N[C@@H](CC(=O)O)C(=O)N[C@@H](CC(=O)O)C(=O)N[C@H](C(=O)N[C@H](C(=O)N1CCC[C@H]1C(=O)N[C@@H](C)C(=O)N[C@@H](CC(=O)O)C(=O)N[C@@H](Cc1ccccc1)C(=O)N[C@@H](CCCCN)C(=O)N[C@H](C(=O)O)C(C)C)C(C)C)C(C)C)C(C)C [compound 126], the “IFN-gamma % donor coverage (TCL-02 DK1)” value [1] is reported as 0.00%, the “IL-5-Fluorospotr % donor coverage (TCL-02 DK1)” value [2] is reported as 8.33% and the “Proliferation % donor coverage” value [3] is reported as 37.93%. The “Proliferation strength (TCL-02 DK1)” value [3] was 0.40.
With CC[C@H](C)[C@H](NC(=O)[C@@H](NC(=O)[C@H](CCC(=O)O)NC(=O)[C@H](CC(=O)O)NC(=O)[C@H](Cc1ccccc1)NC(=O)[C@@H](NC(=O)[C@@H](N)CC(N)=O)C(C)C)C(C)C)C(=O)N1CCC[C@H]1C(=O)N[C@H](C(=O)N[C@@H](C)C(=O)N[C@@H](Cc1ccccc1)C(=O)N[C@H](C(=O)N[C@H](C(=O)NCC(=O)N[C@@H](CCCCN)C(=O)O)C(C)C)[C@@H](C)O)[C@@H](C)O [compound 127] the “IFN-gamma % donor coverage (TCL-02 DK1)” value [1] was 0.00%, the “IL-5-Fluorospotr % donor coverage (TCL-02 DK1)” value [2] was 0.00% and the “Proliferation % donor coverage” value [3] was 10.34%. For the same molecule, the “Proliferation strength (TCL-02 DK1)” value [3] was 2.80.
